Measured values reported in the NIST ThermoML archive (doi:10.1021/je060333x).
Numbers after ± are expanded uncertainties.

Assay: molar enthalpy of transition or fusion
Settings: 352 K; Crystal; DSC

molar enthalpy of transition or fusion: 12.2 ± 0.454 kcal/mol
Structure (SMILES): OCCCCCCCCCCCCO [1,12-dihydroxydodecane]
